Reference: patent US20250352548A1, “BTK Reducing Molecules for Treatment of Cancers and Immune System Disorders” (Accutar Biotechnology, Inc., priority 2022, published 2025)

What was measured:
[1] = tested on: engineered REC1 PLCγ2^S707Y knock-in tumors; assay: Mouse xenograft tumor model, REC1 PLCγ2^S707Y knock-in; format: in vivo; conditions: for TGI: 14 days after administration, S707Y tumors
Description: (§1) Parental REC1 cells (ATCC), engineered REC1 PLCγ2^S707Y cells, and engineered REC-1 PLCγ2^L845F cells, as described in Example 1, were maintained in vitro as monolayer culture in RPMI1640 medium supplemented with 10% fetal bovine serum and 1× Penicillin Streptomycin at 37° C. in an atmosphere of 5% CO2 in air. The tumor cells were routinely subcultured twice weekly. The cells growing in an exponential growth phase were harvested and counted for tumor inoculation. Each mouse was inoculated subcutaneously at the armpit of the right flank with 5×10^6 tumor cells in 0.1 mL of PBS mixed with 0.1 mL matrigel for tumor development. Treatment of the BTK degrader of Formula I-D (1.5 mg/kg, 3 mg/kg, 6 mg/kg, or 15 mg/kg, PO), Ibrutinib (25 mg/kg, PO), or vehicle (PO) started when the average tumor size reached approximately 100 mm^3. Mice were assigned into groups using an Excel-based randomization software performing stratified randomization based upon their tumor volumes. Tumor sizes were measured 3 times weekly in two dimensions using a caliper, and the volume was expressed in mm^3 using the formula: V=0.5 a×b^2 where a and b are the long and short diameters of the tumor, respectively. Tumor growth inhibition (TGI) was calculated for each group using the formula: TGI (%)=[1−(Ti−T0)/(Vi−V0)]×100; Ti is the average tumor volume of a treatment group on a given day, T0 is the average tumor volume of the treatment group on the first day of treatment, Vi is the average tumor volume of the vehicle control group on the same day with Ti, and V0 is the average tumor volume of the vehicle group on the first day of treatment.

[2] = tested on: engineered REC1 PLCγ2^L845F knock-in tumors; assay: Mouse xenograft tumor model, REC1 PLCγ2^L845F knock-in; format: in vivo; conditions: for TGI: 14 days after administration, L845F tumors
Description: as §1

[3] = tested on: engineered REC-1 PLCγ2^L845F cells; assay: Cancer cell growth in vitro, CellTiter-Glo, 6 days; format: cell-based; conditions: 6 days after administration, compared to Ibrutinib (FIG. 1C)
Description: (§2) Parental REC1 cells were obtained from the American Type Culture Collection (ATCC). PLCγ2 gene in REC-1 cell line was edited using the CRISPR-Cas9 technology to create a S to Y point mutation at residue 707 of PLCγ2 protein, or L to F point mutation at residue 845 of PLCγ2 protein. For gene editing, first, gRNA complex of PLCγ2 S707Y or PLCγ2 L845F was prepared with Alt-R CRISPR-Cas9 tracrRNA and crRNA PLCγ2 S707Y (5′-[…]-3′) or PLCγ2 L845F (5′-[…]-3′) (IDT-Integrated DNA Technologies), and then ribonucleoprotein (RNP) complex of PLCγ2 S707Y or PLCγ2 L845F was prepared with respective gRNA complex and Alt-R S.p. Cas9 Nuclease V3 (IDT-Integrated DNA Technologies). […]
(§3) Parental REC1 cells (ATCC), engineered REC1 PLCγ2^S707Y cells, or engineered REC-1 PLCγ2^L845F cells, were plated in 96-well plates at 8,000 cells/well in 90 μl of RPMI1640 growth medium containing 10% heat-inactivated FBS and 1× Penicillin Streptomycin, and then incubated at 37° C. overnight. […] The plates were then incubated at room temperature for 10 minutes and luminescence was recorded by EnSpire plate reader (PerkinElmer).

[4] = tested on: engineered REC1 PLCγ2^S707Y cells; assay: Cancer cell growth in vitro, CellTiter-Glo, 6 days; format: cell-based; conditions: 6 days after administration, compared to Ibrutinib (FIG. 1B)
Description: as §2, §3

Compound | TGI ([1]; Ibrutinib 25 mg/kg PO) [%] | TGI ([2]; Ibrutinib 25 mg/kg PO) [%] | TGI ([1]; 3 mg/kg PO) [%] | TGI ([1]; 6 mg/kg PO) [%] | TGI ([1]; 15 mg/kg PO) [%] | tumor growth inhibition vs Ibrutinib ([1]; REC1 PLCγ2^S707Y knock-in mice, PO, 14 days after administration (FIG. 2B)) | TGI ([2]; 3 mg/kg PO) [%] | TGI ([2]; 6 mg/kg PO) [%] | TGI ([2]; 15 mg/kg PO) [%] | tumor growth inhibition vs Ibrutinib ([2]; REC-1 PLCγ2^L845F knock-in mice, PO, 14 days after administration (FIG. 2C)) | cell growth inhibition [3] | cell growth inhibition [4]
C=CC(=O)N1CCC[C@@H](n2nc(-c3ccc(Oc4ccccc4)cc3)c3c(N)ncnc32)C1 [Ibrutinib, reference compound] | 5 | 12 |  |  |  |  |  |  |  |  |  | 
COc1ccc(F)cc1C(=O)NCc1ccc(-c2nn(-c3ccc(N4CCC(CN5CCN(c6ccc7c(c6)CN(C6CCC(=O)NC6=O)C7=O)CC5)CC4)c(F)c3)c3ncnc(N)c23)cc1 (stereo not drawn) [Formula I-D] |  |  | 61 | 74 | 86 | significantly inhibited tumor growth | 63 | 81 | 88 | significantly inhibited tumor growth | significantly inhibited cell growth | significantly inhibited cell growth
